Source: patent publication US11254686B1 (Corvus Pharmaceuticals, Inc., priority 2017, dated 2022)
Read-outs that look alike come from different tables or passages of the source.

Experiments:
[1] = Hepatocyte intrinsic clearance, rat; format: in vitro ADME; settings: hepatocytes
[2] = molecular target: T1, adenosine A1 receptor (Homo sapiens (Human), UniProt P30542); test: Adenosine receptor activity assay (Table 1), A1 cAMP; format: cell-based
[3] = test system: CYP 450 (isoform not given); test: CYP450 inhibition at 10 μM; format: in vitro ADME; settings: read-out: CYP 450 % INH @ 10 μM
[4] = molecular target: adenosine A2A receptor (Homo sapiens (Human), UniProt P29274); test: Adenosine receptor activity assay (Table 1), A2A activity; format: biochemical; settings: read-out: Ave A2A cAMP IC50
[5] = Hepatocyte intrinsic clearance, human; format: in vitro ADME; settings: hepatocytes
[6] = molecular target: T2, adenosine A3 receptor (Homo sapiens (Human), UniProt P0DMS8); test: Adenosine receptor activity assay (Table 1), A3 cAMP; format: cell-based
[7] = molecular target: adenosine A2B receptor (Homo sapiens (Human), UniProt P29275); test: Adenosine receptor activity assay (Table 1), A2B activity; format: biochemical; settings: for IC50: read-out: Ave A2B cAMP IC50
[8] = Liver microsome intrinsic clearance (LM CLint), rat; format: in vitro ADME
[9] = Liver microsome intrinsic clearance (LM CLint), human; format: in vitro ADME
[10] = molecular target: T2, adenosine A3 receptor; test: Adenosine receptor activity assay (Table 1), A3 cAMP; format: biochemical
Protocol: (§1) Table 1. Compounds (e.g., Adenosine Receptor modulators) and activity assay results. The legend is as follows: A=<10 nM; B=10-50 nM; C=50-100 nM; D=100-500; and E=>500 nM. The ratio corresponds to the A2A activity to the A2B activity; or A2A/A2B.

[11] = molecular target: T1, adenosine A1 receptor; test: Adenosine receptor activity assay (Table 1), A1 cAMP; format: biochemical
Protocol: as §1

[12] = A2A activity to A2B activity (A2A/A2B)
[13] = A2A activity to the A2B activity, A2A/A2B

T2 sequence (P0DMS8 whole entry): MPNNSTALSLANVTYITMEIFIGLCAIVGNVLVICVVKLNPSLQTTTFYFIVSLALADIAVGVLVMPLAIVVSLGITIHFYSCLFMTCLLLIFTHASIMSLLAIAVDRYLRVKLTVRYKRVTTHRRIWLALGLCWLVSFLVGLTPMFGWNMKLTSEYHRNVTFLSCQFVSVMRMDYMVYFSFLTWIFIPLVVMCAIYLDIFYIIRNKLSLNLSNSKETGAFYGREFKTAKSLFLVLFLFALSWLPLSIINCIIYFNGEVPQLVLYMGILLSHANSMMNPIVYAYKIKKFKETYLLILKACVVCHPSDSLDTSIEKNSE
Chain of adenosine A2A receptor (P29274 whole entry): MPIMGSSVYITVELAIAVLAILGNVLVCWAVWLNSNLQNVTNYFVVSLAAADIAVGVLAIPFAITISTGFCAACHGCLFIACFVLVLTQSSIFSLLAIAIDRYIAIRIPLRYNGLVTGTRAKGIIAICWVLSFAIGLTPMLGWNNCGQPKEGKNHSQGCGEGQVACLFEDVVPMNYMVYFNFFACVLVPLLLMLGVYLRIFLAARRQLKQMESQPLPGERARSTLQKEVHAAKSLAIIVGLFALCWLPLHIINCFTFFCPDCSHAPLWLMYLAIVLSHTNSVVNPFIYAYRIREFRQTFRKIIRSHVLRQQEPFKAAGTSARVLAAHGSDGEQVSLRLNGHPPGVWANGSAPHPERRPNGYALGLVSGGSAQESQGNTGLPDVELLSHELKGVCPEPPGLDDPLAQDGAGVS
Chain of adenosine A2B receptor (P29275 whole entry): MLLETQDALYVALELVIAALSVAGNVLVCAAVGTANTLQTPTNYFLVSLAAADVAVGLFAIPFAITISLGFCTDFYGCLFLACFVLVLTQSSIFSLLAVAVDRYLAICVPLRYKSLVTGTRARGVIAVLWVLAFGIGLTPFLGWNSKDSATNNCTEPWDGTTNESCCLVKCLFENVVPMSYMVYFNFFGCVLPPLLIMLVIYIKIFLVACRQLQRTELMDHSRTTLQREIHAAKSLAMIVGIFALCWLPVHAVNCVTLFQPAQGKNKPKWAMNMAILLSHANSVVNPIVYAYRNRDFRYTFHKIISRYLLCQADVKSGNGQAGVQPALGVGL
T1 sequence (P30542 whole entry, canonical isoform): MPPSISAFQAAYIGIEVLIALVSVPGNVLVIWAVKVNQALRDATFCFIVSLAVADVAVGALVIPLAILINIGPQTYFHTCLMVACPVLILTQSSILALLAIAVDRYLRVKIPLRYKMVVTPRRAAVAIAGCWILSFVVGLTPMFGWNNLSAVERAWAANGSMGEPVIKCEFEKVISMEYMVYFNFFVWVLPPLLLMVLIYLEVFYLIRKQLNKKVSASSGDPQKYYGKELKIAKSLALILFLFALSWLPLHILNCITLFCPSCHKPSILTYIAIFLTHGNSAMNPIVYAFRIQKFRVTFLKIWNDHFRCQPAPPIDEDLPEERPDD

## C[C@H](Nc1nc(C(=O)N2CC(O)C2)c2sccc2n1)c1cncc(F)c1 [Example Z198, (S)-(2-((1-(5-Fluoropyridin-3-yl)ethyl)amino)thieno[3,2-d]pyrimidin-4-yl)(3-hydroxyazetidin-1-yl)methanone]
[1]
  hepatocyte CLint: 20.6 µL/min/1e6 cells
[2]
  IC50: > 500 nM
[3]
  inhibition at 10 µM: 27%
[4]
  IC50: 100 to 500 nM
[5]
  hepatocyte CLint: 6.78 µL/min/1e6 cells
[6]
  IC50: > 500 nM
[7]; [12]
  Ratio: 52.81
[7]
  IC50: < 10 nM

## CNc1cc2nc(N[C@@H](C)c3cncc(F)c3)nc(C(=O)N3CCCC3)c2s1 [Example Z210, (S)-(2-((1-(5-Fluoropyridin-3-yl)ethyl)amino)-6-(methylamino)thieno[3,2-d]pyrimidin-4-yl)(pyrrolidin-1-yl)methanone]
[1]
  hepatocyte CLint: 51.7 µL/min/1e6 cells
[2]
  IC50: > 500 nM
[3]
  inhibition at 10 µM: 46%
[4]
  IC50: 100 to 500 nM
[5]
  hepatocyte CLint: 20.3 µL/min/1e6 cells
[6]
  IC50: 50 to 100 nM
[7]; [12]
  Ratio: 162.88
[7]
  IC50: < 10 nM

## CNc1cc2nc(N[C@@H](C)c3cncc(F)c3)nc(C(=O)N3CCC3)c2s1 [Example Z211, (S)-Azetidin-1-yl(2-((1-(5-fluoropyridin-3-yl)ethyl)amino)-6-(methylamino)thieno[3,2-d]pyrimidin-4-yl)methanone]
[1]
  hepatocyte CLint: 53.2 µL/min/1e6 cells
[2]
  IC50: > 500 nM
[3]
  inhibition at 10 µM: 67%
[4]
  IC50: 100 to 500 nM
[5]
  hepatocyte CLint: 15.8 µL/min/1e6 cells
[6]
  IC50: 50 to 100 nM
[7]; [12]
  Ratio: 201.82
[7]
  IC50: < 10 nM

## Cc1cc2nc(N[C@@H](C)c3cccnc3)nc(C(=O)N3CCCC3)c2s1 [Example Z213, (S)-(6-Methyl-2-((1-(pyridin-3-yl)ethyl)amino)thieno[3,2-d]pyrimidin-4-yl)(pyrrolidin-1-yl)methanone]
[1]
  hepatocyte CLint: 25.3 µL/min/1e6 cells
[2]
  IC50: > 500 nM
[3]
  inhibition at 10 µM: 90%
[4]
  IC50: 100 to 500 nM
[5]
  hepatocyte CLint: 59.6 µL/min/1e6 cells
[6]
  IC50: > 500 nM
[7]; [12]
  Ratio: 127.82
[7]
  IC50: < 10 nM

## CNc1cc2nc(N[C@@H](C)c3cncc(F)c3)nc(C(=O)N3CC[C@@H](O)C3)c2s1 [Example Z224, (2-(((S)-1-(5-Fluoropyridin-3-yl)ethyl)amino)-6-(methylamino)thieno[3,2-d]pyrimidin-4-yl)((R)-3-hydroxypyrrolidin-1-yl)methanone]
[1]
  hepatocyte CLint: 4.61 µL/min/1e6 cells
[2]
  IC50: > 500 nM
[3]
  inhibition at 10 µM: 52.5%
[4]
  IC50: > 500 nM
[5]
  hepatocyte CLint: 16.1 µL/min/1e6 cells
[6]
  IC50: 50 to 100 nM
[7]; [12]
  Ratio: 340.19
[7]
  IC50: < 10 nM

## C[C@H](Nc1nc(C(=O)N2CC[C@H](F)C2)c2sccc2n1)c1cncc(F)c1 [Example Z225, (2-(((S)-1-(5-Fluoropyridin-3-yl)ethyl)amino)thieno[3,2-d]pyrimidin-4-yl)((S)-3-fluoropyrrolidin-1-yl)methanone]
[1]
  hepatocyte CLint: 21.1 µL/min/1e6 cells
[2]
  IC50: > 500 nM
[3]
  inhibition at 10 µM: 57%
[4]
  IC50: 100 to 500 nM
[5]
  hepatocyte CLint: 44.5 µL/min/1e6 cells
[6]
  IC50: > 500 nM
[7]; [12]
  Ratio: 43.99
[7]
  IC50: < 10 nM

## C[C@H](Nc1nc(C(=O)N2CCCC2)c2sccc2n1)c1cncc(Cl)c1 [Example Z231, (S)-(2-((1-(5-Chloropyridin-3-yl)ethyl)amino)thieno[3,2-d]pyrimidin-4-yl)(pyrrolidin-1-yl)methanone]
[1]
  hepatocyte CLint: 41.1 µL/min/1e6 cells
[2]
  IC50: > 500 nM
[3]
  inhibition at 10 µM: 75%
[4]
  IC50: 100 to 500 nM
[5]
  hepatocyte CLint: 72.7 µL/min/1e6 cells
[6]
  IC50: > 500 nM
[7]; [12]
  Ratio: 88.17
[7]
  IC50: < 10 nM

## CO[C@@H]1CCN(C(=O)c2nc(N[C@@H](C)c3cncc(F)c3)nc3ccsc23)C1 [Example Z251, (2-(((S)-1-(5-Fluoropyridin-3-yl)ethyl)amino)thieno[3,2-d]pyrimidin-4-yl)((R)-3-methoxypyrrolidin-1-yl)methanone]
[2]
  IC50: > 500 nM
[3]
  inhibition at 10 µM: 49.1%
[4]
  IC50: 100 to 500 nM
[6]
  IC50: > 500 nM
[7]; [12]
  Ratio: 19.74
[7]
  IC50: < 10 nM

## CO[C@H]1CCN(C(=O)c2nc(N[C@@H](C)c3cncc(F)c3)nc3ccsc23)C1 [Example Z252, (2-(((S)-1-(5-Fluoropyridin-3-yl)ethyl)amino)thieno[3,2-d]pyrimidin-4-yl)((S)-3-methoxypyrrolidin-1-yl)methanone]
[2]
  IC50: > 500 nM
[3]
  inhibition at 10 µM: 55.9%
[4]
  IC50: 100 to 500 nM
[6]
  IC50: > 500 nM
[7]; [12]
  Ratio: 19.78
[7]
  IC50: 10 to 50 nM

## Cc1cc2nc(N[C@@H](C)c3ccccn3)nc(C(=O)N3CC[C@H](O)C3)c2s1 [Example Z282, ((S)-3-Hydroxypyrrolidin-1-yl)(6-methyl-2-(((S)-1-(pyridin-2-yl)ethyl)amino)thieno[3,2-d]pyrimidin-4-yl)methanone]
[1]
  hepatocyte CLint: 17.2 µL/min/1e6 cells
[2]
  IC50: > 500 nM
[3]
  inhibition at 10 µM: -18.8%
[4]
  IC50: > 500 nM
[5]
  hepatocyte CLint: 4.11 µL/min/1e6 cells
[6]
  IC50: > 500 nM
[7]; [12]
  Ratio: 77.76
[7]
  IC50: 10 to 50 nM

## Cc1cc2nc(N[C@@H](C)c3cccnc3)nc(C(=O)N3CCC3)c2s1 [Example Z283, (S)-Azetidin-1-yl(6-methyl-2-((1-(pyridin-3-yl)ethyl)amino)thieno[3,2-d]pyrimidin-4-yl)methanone]
[1]
  hepatocyte CLint: 42.7 µL/min/1e6 cells
[2]
  IC50: > 500 nM
[3]
  inhibition at 10 µM: 80.5%
[4]
  IC50: 100 to 500 nM
[5]
  hepatocyte CLint: 26.5 µL/min/1e6 cells
[6]
  IC50: > 500 nM
[7]; [12]
  Ratio: 54.37
[7]
  IC50: < 10 nM

## C[C@H](Nc1nc(C(=O)N2CC[C@H](CO)C2)c2sccc2n1)c1cncc(F)c1 [Example Z294, (2-(((S)-1-(5-Fluoropyridin-3-yl)ethyl)amino)thieno[3,2-d]pyrimidin-4-yl)((S)-3-(hydroxymethyl)pyrrolidin-1-yl)methanone]
[1]
  hepatocyte CLint: 17.2 µL/min/1e6 cells
[2]
  IC50: > 500 nM
[3]
  inhibition at 10 µM: 37.6%
[4]
  IC50: 100 to 500 nM
[5]
  hepatocyte CLint: 15.6 µL/min/1e6 cells
[6]
  IC50: > 500 nM
[7]; [12]
  Ratio: 84.08
[7]
  IC50: < 10 nM

## Cc1cc2nc(N[C@@H](C)c3ccccn3)nc(C(=O)N3CC[C@@H](O)C3)c2s1 [Example Z298, ((R)-3-Hydroxypyrrolidin-1-yl)(6-methyl-2-(((S)-1-(pyridin-2-yl)ethyl)amino)thieno[3,2-d]pyrimidin-4-yl)methanone]
[1]
  hepatocyte CLint: 18.8 µL/min/1e6 cells
[2]
  IC50: > 500 nM
[3]
  inhibition at 10 µM: -13.9%
[4]
  IC50: 100 to 500 nM
[5]
  hepatocyte CLint: 5.35 µL/min/1e6 cells
[6]
  IC50: > 500 nM
[7]; [12]
  Ratio: 64.00
[7]
  IC50: < 10 nM

## CO[C@H]1CCN(C(=O)c2nc(N[C@@H](C)c3cncc(F)c3)nc3cc(C)sc23)C1 [Example Z301, (2-(((S)-1-(5-Fluoropyridin-3-yl)ethyl)amino)-6-methylthieno[3,2-d]pyrimidin-4-yl)((S)-3-methoxypyrrolidin-1-yl)methanone]
[1]
  hepatocyte CLint: 51.7 µL/min/1e6 cells
[2]
  IC50: > 500 nM
[3]
  inhibition at 10 µM: 52%
[4]
  IC50: 100 to 500 nM
[5]
  hepatocyte CLint: 23.8 µL/min/1e6 cells
[6]
  IC50: 50 to 100 nM
[7]; [12]
  Ratio: 83.47
[7]
  IC50: < 10 nM

## C[C@H](Nc1nc(C(=O)N2CC(N)C2)c2sccc2n1)c1cncc(F)c1 [Example Z401, (S)-(3-Aminoazetidin-1-yl)(2-((1-(5-fluoropyridin-3-yl)ethyl)amino)thieno[3,2-d]pyrimidin-4-yl)methanone]
[8]
  LM CLint: 5.32 μL/min/mg/protein
[9]
  LM CLint: 2.64 μL/min/mg/protein
[7]
  IC50: 10 to 50 nM

## Cc1cc2nc(N[C@@H](C)c3cncc(F)c3)nc(C(=O)N3CC[C@H](N)C3)c2s1 [Example Z412, ((S)-3-Aminopyrrolidin-1-yl)(2-(((S)-1-(5-fluoropyridin-3-yl)ethyl)amino)-6-methylthieno[3,2-d]pyrimidin-4-yl)methanone]
[8]
  LM CLint: 26.34 μL/min/mg/protein
[9]
  LM CLint: 0.15 μL/min/mg/protein
[4]
  IC50: > 500 nM
[10]
  IC50: > 500 nM
[11]
  IC50: > 500 nM
[7]; [13]
  Ratio: 166.77
[7]
  IC50: 10 to 50 nM

## Cc1csc2c(C(=O)N3CCC3)nc(N[C@@H](C)c3cncc(F)c3)nc12 [Example Z415, (S)-Azetidin-1-yl(2-((1-(5-fluoropyridin-3-yl)ethyl)amino)-7-methylthieno[3,2-d]pyrimidin-4-yl)methanone]
[8]
  LM CLint: 56.26 μL/min/mg/protein
[9]
  LM CLint: 82.97 μL/min/mg/protein
[4]
  IC50: 10 to 50 nM
[10]
  IC50: > 500 nM
[11]
  IC50: 50 to 100 nM
[7]; [13]
  Ratio: 21.01
[7]
  IC50: < 10 nM

## C[C@H](Nc1nc(C(=O)N2CC(CN)C2)c2sccc2n1)c1cncc(F)c1 [Example Z419, (S)-(3-(Aminomethyl)azetidin-1-yl)(2-((1-(5-fluoropyridin-3-yl)ethyl)amino)thieno[3,2-d]pyrimidin-4-yl)methanone]
[8]
  LM CLint: 9.09 μL/min/mg/protein
[9]
  LM CLint: 0.69 μL/min/mg/protein
[7]
  IC50: 10 to 50 nM

## CC(=O)Nc1ccc(CCNC(=O)c2nc(N[C@@H](C)c3cncc(F)c3)nc3ccsc23)cc1 [Example Z421, (S)—N-(4-Acetamidophenethyl)-2-((1-(5-fluoropyridin-3-yl)ethyl)amino)thieno[3,2-d]pyrimidine-4-carboxamide]
[8]
  LM CLint: 85.16 μL/min/mg/protein
[9]
  LM CLint: 228.45 μL/min/mg/protein
[7]
  IC50: 10 to 50 nM
